Data from PubChem BioAssay (NCI).
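Method: 48-hour compound exposure of cells in 96-well plates, five concentrations, linear interpolation of endpoints. Definition used: TGI = concentration required for complete inhibition of growth.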

Key:
Assay in all cases: inhibition of tumour cell growth, NCI panel, 48 h
NCI-H460 lung = system: NCI-H460 lung
DU-145 prostate = system: DU-145 prostate
NCI/ADR-RES ovarian = system: NCI/ADR-RES ovarian
A549 NSCLC = system: A549 NSCLC
M14 melanoma = system: M14 melanoma
786-0 renal = system: 786-0 renal
PC-3 prostate = system: PC-3 prostate
IGROV1 ovarian = system: IGROV1 ovarian
EKVX NSCLC = system: EKVX NSCLC
SK-OV-3 ovarian = system: SK-OV-3 ovarian
SNB-75 CNS = system: SNB-75 CNS
KM12 colon = system: KM12 colon
BT-549 breast = system: BT-549 breast
K-562 leukemia = system: K-562 leukemia
U251 CNS = system: U251 CNS
MOLT-4 leukemia = system: MOLT-4 leukemia
SK-MEL-2 melanoma = system: SK-MEL-2 melanoma
ACHN renal = system: ACHN renal
SF-268 CNS = system: SF-268 CNS
SF-539 CNS = system: SF-539 CNS
CCRF-CEM leukemia = system: CCRF-CEM leukemia
MDA-MB-231 breast = system: MDA-MB-231 breast
SK-MEL-28 melanoma = system: SK-MEL-28 melanoma
CAKI-1 renal = system: CAKI-1 renal
COLO 205 colon = system: COLO 205 colon
OVCAR-3 ovarian = system: OVCAR-3 ovarian
HCC-2998 colon = system: HCC-2998 colon
SN12C renal = system: SN12C renal
HCT-116 colon = system: HCT-116 colon
HT29 colon = system: HT29 colon
SW-620 colon = system: SW-620 colon
MCF7 breast = system: MCF7 breast
HL-60(TB) leukemia = system: HL-60(TB) leukemia
SF-295 CNS = system: SF-295 CNS
TK-10 renal = system: TK-10 renal
A498 renal = system: A498 renal
RXF 393 renal = system: RXF 393 renal
T-47D breast = system: T-47D breast
SNB-19 CNS = system: SNB-19 CNS
OVCAR-5 ovarian = system: OVCAR-5 ovarian
SR leukemia = system: SR leukemia
MDA-N = system: MDA-N
HOP-62 NSCLC = system: HOP-62 NSCLC
UACC-62 melanoma = system: UACC-62 melanoma
SK-MEL-5 melanoma = system: SK-MEL-5 melanoma
RPMI-8226 leukemia = system: RPMI-8226 leukemia
MDA-MB-435 = system: MDA-MB-435
UO-31 renal = system: UO-31 renal
MALME-3M melanoma = system: MALME-3M melanoma
OVCAR-8 ovarian = system: OVCAR-8 ovarian
UACC-257 melanoma = system: UACC-257 melanoma
HCT-15 colon = system: HCT-15 colon
HS 578T breast = system: HS 578T breast
HOP-92 NSCLC = system: HOP-92 NSCLC
NCI-H522 lung = system: NCI-H522 lung
LOX IMVI melanoma = system: LOX IMVI melanoma
NCI-H226 lung = system: NCI-H226 lung
NCI-H23 lung = system: NCI-H23 lung
OVCAR-4 ovarian = system: OVCAR-4 ovarian

Measured: TGI

O=C(/C=C/c1ccccc1)Oc1ccc(C(=O)/C=C/c2ccc(Cl)cc2)cc1
> 100 µM: NCI-H460 lung | DU-145 prostate | NCI/ADR-RES ovarian | A549 NSCLC | M14 melanoma | 786-0 renal | PC-3 prostate | IGROV1 ovarian | EKVX NSCLC | SK-OV-3 ovarian | SNB-75 CNS | KM12 colon | BT-549 breast | K-562 leukemia | U251 CNS | MOLT-4 leukemia | SK-MEL-2 melanoma | ACHN renal | SF-268 CNS | SF-539 CNS | CCRF-CEM leukemia | MDA-MB-231 breast | SK-MEL-28 melanoma | CAKI-1 renal | COLO 205 colon | OVCAR-3 ovarian | HCC-2998 colon | SN12C renal | HCT-116 colon | HT29 colon | SW-620 colon | MCF7 breast | HL-60(TB) leukemia | SF-295 CNS | TK-10 renal | A498 renal | RXF 393 renal | T-47D breast | SNB-19 CNS | OVCAR-5 ovarian | SR leukemia | MDA-N | HOP-62 NSCLC | UACC-62 melanoma | SK-MEL-5 melanoma | RPMI-8226 leukemia | MDA-MB-435 | UO-31 renal | MALME-3M melanoma | OVCAR-8 ovarian | UACC-257 melanoma

Cc1ccc(NC(=O)c2cc(S(=O)(=O)Nc3n[nH]c(=O)[nH]3)c(SSc3cc(Cl)c(C(=O)Nc4ccc(C)cc4)cc3S(=O)(=O)Nc3n[nH]c(=O)[nH]3)cc2Cl)cc1
> 100 µM: NCI-H460 lung | HCT-15 colon | HS 578T breast | NCI/ADR-RES ovarian | A549 NSCLC | M14 melanoma | 786-0 renal | PC-3 prostate | IGROV1 ovarian | EKVX NSCLC | SK-OV-3 ovarian | HOP-92 NSCLC | SNB-75 CNS | KM12 colon | BT-549 breast | K-562 leukemia | U251 CNS | NCI-H522 lung | MOLT-4 leukemia | LOX IMVI melanoma | NCI-H226 lung | SK-MEL-2 melanoma | ACHN renal | NCI-H23 lung | SF-268 CNS | CCRF-CEM leukemia | MDA-MB-231 breast | SK-MEL-28 melanoma | CAKI-1 renal | COLO 205 colon | OVCAR-3 ovarian | HCC-2998 colon | SN12C renal | HCT-116 colon | HT29 colon | SW-620 colon | MCF7 breast | HL-60(TB) leukemia | SF-295 CNS | TK-10 renal | A498 renal | SNB-19 CNS | OVCAR-5 ovarian | SR leukemia | MDA-N | HOP-62 NSCLC | UACC-62 melanoma | OVCAR-4 ovarian | SK-MEL-5 melanoma | RPMI-8226 leukemia | MDA-MB-435 | UO-31 renal | MALME-3M melanoma | OVCAR-8 ovarian | UACC-257 melanoma
